In patent publication US20220325242A1, “IDH2 INHIBITION FOR PRODUCING T-CELLS AND B-CELLS WITH A MEMORY PHENOTYPE” (Universite de Lausanne, priority 2019, published 2022):

What was measured:
human CD8+ T-cells = assay: Cytokine expression after PMA and Ionomycin restimulation of human CBMC-derived T-cells; assay type: cell-based; settings: day 11 cells, inhibitors washed out, PMA and ionomycin 4 hours
Method: (§1) Methods: Mononuclear Cells were isolated from fresh umbilical cord blood on a Percoll Gradient (CBMCs). 10^4 CBMC's were seeded per well in a round bottom 96-well plate in RPMI with 10% human serum, and activated with (magnetic) αCD3/CD28 at a 1:2 cell:bead ratio and 300 U/ml rhIL-2, in the presence of 5 μM AG221 or DMSO, or 1 μM MK2206 (AKT inhibitor). After 11 days of culture, CD62L expression was analyzed by flow cytometry on a fraction of the cells (FIG. 15A). The other cells were washed 2 times and placed in a magnet to remove the inhibitors and the αCD3/CD28 beads. The cells were then rested for 4 hours before restimulating them for 4 hours with 1 ng/ml Phorbol 12-Myristate 13-Acetate (PMA, a PKC activator) and 50 μg/ml Ionomycin (a Ca^2+ ionophore, activating NF-KB and NFAT) in the presence of 50 μ/ml golgi inhibitor (Brefeldin A, BFA), allowing for the measurement of intracellular accumulation of different cytokines by flow cytometry.

[1] = system: human CD8+ T-cells from umbilical cord blood; assay: CD62L flow cytometry of human cord blood mononuclear cells (CBMC); assay type: cell-based; settings: day 11; AG221 5 μM, MK2206 1 μM; DMSO control about 35%
Method: as §1

OT1 CD8+ T-cells = assay: Flow cytometry of surface activation and memory markers on in vitro cultured OT1 CD8+ T-cells; assay type: cell-based, mouse; settings: 5 μM inhibitor day 0-3, flow cytometry on day 3 and 7
Method: Example 2. In vitro culture of splenocytes comprising CD8+ T-cells. OT1 splenocytes (as described in Example 1) were cultured for 3 days at a concentration of 10^6 cells per mL in RPMI medium (Gibco 61870-01) supplemented with 10% FCS, (Gibco 10270-106), 1% Penicillin/Streptomycin (P/S; Gibco 15070-063), 0.1% 13-mercaptoethanol, 1% HEPES (Gibco 15630-080), 1× Non-essential amino acids (Gibco 11140-035), 1% L-glutamine (Gibco 25030-081), 1 mM Sodium Pyruvate (Gibco 11360-039), 100 U/m1 hIL-2 (Glaxo-IMB) and 1 μg/ml ovalbumin N4 peptide (SIINFEKL). To evaluate the effects of IDH2 inhibition on T-cell differentiation, 5 μM of a small molecule IDH2 inhibitor (AG221 or AGI6780) or a DMSO solvent control was added during this 3-day culture period. At day 3, a fraction of the splenocytes was collected and the remaining cells were cultured for 4 additional days with 100 U/ml hIL-2 and 10 ng/ml hIL-7 (Peprotech 200-07) supplementation after washing out the inhibitors and the ovalbumine N4 peptide (FIG. 1). At day 3 and day 7, the activation and differentiation state of CD8+ T-cells was determined by gene expression analysis, flow cytometry and extracellular metabolic flux analyses (see Example 3).
Cells were incubated in a live/dead stain (Fixable aqua dead cell stain kit, Invitrogen) followed by an incubation with different antibody panels.
Antibody panel to determine the differentiation and activation state of in vitro cultured T-cells (see Examples 2 and 4): anti-CD8-PE-texas-Red, anti-CD62L-FITC, anti-CD127-PE, anti-CD27-PerCP-Cy5.5, anti-CD71-PE-Cy7, anti-CD44-APC-Cy7, anti-CD98-APC, anti-CD25-Pacific blue (BD Pharmingen and eBioscience, San Diego, Calif., USA). All those antigens are surface molecules. Cells were gated on living single CD8+ cells before analysis of activation and memory marker expression. For the unstained control, cells were stained with the live/dead stain and anti-CD8-PE-texas-Red.
Cells were acquired on LSR-II flow cytometers from the flow cytometry facility of UNIL and data were analyzed with FlowJo™ 10 software. Antibodies were purchased from BD Phamingen (San Diego, Calif., USA), eBioscience (San Diego, Calif., USA, and Biolegend (San Diego, Calif., USA).

| SMILES | TNF expression upon restimulation (human CD8+ T-cells) | expression of effector cytokine IFNγ upon restimulation (human CD8+ T-cells) | production of IL-2 upon restimulation (human CD8+ T-cells) | CD8+ cells expressing CD62L [1] | CD62L surface expression compared to DMSO (OT1 CD8+ T-cells) | other surface markers (CD25, CD44, CD71, CD98, CD27, CD127) compared to DMSO (OT1 CD8+ T-cells) |
| --- | --- | --- | --- | --- | --- | --- |
| NC1(c2ccc(-c3nc4ccn5c(=O)[nH]nc5c4cc3-c3ccccc3)cc2)CCC1 [MK2206] | unaffected | detrimental | unaltered | about 75% | – | – |
| O=C(Nc1cccc(C(F)(F)F)c1)Nc1cc(S(=O)(=O)NC2CC2)ccc1-c1ccsc1 [AGI6780, 1-[5-(cyclopropylsulfamoyl)-2-thiophen-3-ylphenyl]-3-[3-(trifluoromethyl)phenyl]urea] | – | – | – | – | increased | generally unchanged |
